A short description of experiment [1]: Antiviral activity was tested in cells acutely infected with HIV-1 RT (reverse transcriptase).
Experiment [2] is described as follows: Antiviral activity was tested in cells acutely infected with HIV-1 Reverse transcriptase.

Structures are written as SMILES. pIC50: −log10 of the molar value.

The term pIC50 denotes the negative decadic logarithm of the IC50, by convention in mol/L. High values mean a small IC50, low ones a large IC50. In experiment [1], `C[C@H]1OC(n2cc3c4c(ncnc42)N(C)N=C3N)[C@H](O)[C@@H]1O` (stereo partly specified) showed a negative-log IC50 (pIC50) of less than 4.00. Molecule `CN1N=C(N)c2cn([C@@H]3O[C@H](CO)C[C@H]3O)c3ncnc1c23` had a negative logarithm of the IC50 (pIC50) in experiment [1] of less than 4.00.

`CN1N=C(N)c2cn([C@H]3CC[C@@H](CO)O3)c3ncnc1c23` gave a pIC50 in experiment [1] of 4.68. The same measure, in the same setting: under `CN1N=C(N)c2cn(C3C[C@@H](O)[C@@H](CO)O3)c3ncnc1c23` (stereo partly specified) [5-(3-Amino-5-methyl-5H-1,4,5,6,8-pentaaza-acenaphthylen-1-yl)-2-hydroxymethyl-tetrahydro-furan-3-ol] stands less than 4.00. Molecule `CN1N=C(N)c2cn(C3O[C@H](CO)[C@H]4O[C@H]34)c3ncnc1c23` (stereo partly specified) [[4-(3-Amino-5-methyl-5H-1,4,5,6,8-pentaaza-acenaphthylen-1-yl)-3,6-dioxa-bicyclo[3.1.0]hex-2-yl]-methanol(2',3'-epoxyTCN)] gave a negative logarithm of the IC50 (pIC50) in experiment [2] of less than 4.00. For `CN1N=C(N)c2cn(C3C=C[C@@H](CO)O3)c3ncnc1c23` (stereo partly specified) [[5-(3-Amino-5-methyl-5H-1,4,5,6,8-pentaaza-acenaphthylen-1-yl)-2,5-dihydro-furan-2-yl]-methanol], in experiment [1], the negative-log IC50 (pIC50) is 4.00.

(Values after BindingDB's records for doi:10.1021/jm990205m (University of Michigan, 2000).)
